Measurements taken from ChEMBL document CHEMBL1201862, “PubChem BioAssay data set” (2004).
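Protocol summary: plate cells (96-well), add compound at 5 concentrations, incubate 48 h, interpolate endpoints linearly. GI50 = concentration required for 50% inhibition of growth.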 Active and inactive are the calls of the source. Rule as the data show it: active = GI50 up to about 1.1 µM and inactive = higher. Non-standard residues stand in square brackets, D forms with d. Residues, ends and D or L forms follow the SMILES beside them. ξ: configuration not given here. *: point of attachment. NMeF = CN[C@@H](Cc1ccccc1)C(=O)O; NMeV = CN[C@H](C(=O)O)C(C)C; ξNMeV = CNC(C(=O)O)C(C)C; Boc = CC(C)(C)OC(=O)*; OBn = c1ccc(CO*)cc1

Tests used:
Assay in all cases: NCI anticancer screen, dose series, 48 h
[1] = system: HCT-116
[2] = system: UO-31
[3] = system: SNB-19
[4] = system: OVCAR-8
[5] = system: SK-MEL-5
[6] = system: SK-MEL-2
[7] = system: UACC-257
[8] = system: NCI-H460
[9] = system: IGROV-1
[10] = system: DU-145
[11] = system: MDA-N
[12] = system: OVCAR-5
[13] = system: MCF7
[14] = system: SNB-75
[15] = system: KM12
[16] = system: Malme-3M
[17] = system: SF-295
[18] = system: HL-60
[19] = system: CCRF-CEM
[20] = system: SR

Row | SMILES | GI50 [1] | GI50 [2] | GI50 [3] | GI50 [4] | GI50 [5] | GI50 [6] | GI50 [7] | GI50 [8] | GI50 [9] | GI50 [10] | GI50 [11] | GI50 [12] | GI50 [13] | GI50 [14] | GI50 [15] | GI50 [16] | GI50 [17] | GI50 [18] | GI50 [19] | GI50 [20]
1 | CC(C)(C)[Si](C)(C)OCCCCC1CC2(S(=O)(=O)C3=CC=C=C=C3)ON1CC2S(=O)(=O)c1ccccc1 (stereo not drawn) | > 100 µM (inactive) | > 100 µM (inactive) | > 100 µM (inactive) | > 100 µM (inactive) | > 100 µM (inactive) | > 100 µM (inactive) | 84.9 µM (inactive) | > 100 µM (inactive) | > 100 µM (inactive) | > 100 µM (inactive) | > 100 µM (inactive) | > 100 µM (inactive) | > 100 µM (inactive) | > 100 µM (inactive) | > 100 µM (inactive) | – | – | – | – | –
2 | CC(C)CCCC(=O)CCCCCCC(=O)CCN(O)C(=O)C(N)CO (stereo not drawn) | 17.7 µM (inactive) | 12.2 µM (inactive) | 22.5 µM (inactive) | 16.9 µM (inactive) | 17.5 µM (inactive) | 17.1 µM (inactive) | 17.3 µM (inactive) | – | 13.5 µM (inactive) | 18.3 µM (inactive) | 21.8 µM (inactive) | 19.8 µM (inactive) | 19.8 µM (inactive) | 10.8 µM (inactive) | 17.6 µM (inactive) | 13.7 µM (inactive) | 18.3 µM (inactive) | 20 µM (inactive) | 4.62 µM (inactive) | –
3 | COc1ccc2c(c1)OCC1=C2Oc2ccccc2C1 | 36.6 µM (inactive) | 50.4 µM (inactive) | – | 55.6 µM (inactive) | 13.9 µM (inactive) | 26.5 µM (inactive) | 31.2 µM (inactive) | – | 7.19 µM (inactive) | 83.9 µM (inactive) | 25 µM (inactive) | 30.1 µM (inactive) | – | 3.12 µM (inactive) | 55.8 µM (inactive) | > 100 µM (inactive) | 41.5 µM (inactive) | 14.8 µM (inactive) | – | 26.9 µM (inactive)
4 | Cn1c(=S)[nH]c2sc3c(c2c1=O)CCSC3 | 34.8 µM (inactive) | 11.7 µM (inactive) | 47.4 µM (inactive) | 39.8 µM (inactive) | 36 µM (inactive) | > 100 µM (inactive) | 41.8 µM (inactive) | 35.8 µM (inactive) | 23.9 µM (inactive) | 24.3 µM (inactive) | 54.7 µM (inactive) | 53.7 µM (inactive) | 44.3 µM (inactive) | > 100 µM (inactive) | 32.1 µM (inactive) | 58.2 µM (inactive) | 29.9 µM (inactive) | 16.7 µM (inactive) | – | –
5 | C[C@H](NC(=O)OC1C2C=CC(O)C1CC2)c1ccccc1 (stereo partly drawn) | > 100 µM (inactive) | > 100 µM (inactive) | > 100 µM (inactive) | > 100 µM (inactive) | > 100 µM (inactive) | > 100 µM (inactive) | > 100 µM (inactive) | 80 µM (inactive) | > 100 µM (inactive) | – | – | > 100 µM (inactive) | – | > 100 µM (inactive) | > 100 µM (inactive) | > 100 µM (inactive) | > 100 µM (inactive) | > 100 µM (inactive) | 81.1 µM (inactive) | 21.4 µM (inactive)
6 | Cc1ccc(C2C(Cl)C(=O)N2n2cnc3ccccc3c2=O)cc1 (stereo not drawn) | 89.3 µM (inactive) | 23.4 µM (inactive) | 44 µM (inactive) | > 100 µM (inactive) | 82.2 µM (inactive) | > 100 µM (inactive) | 42 µM (inactive) | > 100 µM (inactive) | > 100 µM (inactive) | – | – | > 100 µM (inactive) | – | 91.6 µM (inactive) | > 100 µM (inactive) | > 100 µM (inactive) | > 100 µM (inactive) | 29.6 µM (inactive) | > 100 µM (inactive) | 21.5 µM (inactive)
7 | CCOC(=O)c1c(SCc2cc(=O)[nH]c(=O)[nH]2)n(-c2ccccc2)c(=S)n(-c2ccccc2)c1=O | > 100 µM (inactive) | > 100 µM (inactive) | > 100 µM (inactive) | > 100 µM (inactive) | > 100 µM (inactive) | > 100 µM (inactive) | > 100 µM (inactive) | > 100 µM (inactive) | > 100 µM (inactive) | > 100 µM (inactive) | > 100 µM (inactive) | > 100 µM (inactive) | > 100 µM (inactive) | > 100 µM (inactive) | > 100 µM (inactive) | > 100 µM (inactive) | – | – | > 100 µM (inactive) | –
8 | Cc1ccc(-c2cs/c(=N\c3c(C)n(C)n(-c4ccccc4)c3=O)n2CCO)cc1 | – | > 100 µM (inactive) | > 100 µM (inactive) | > 100 µM (inactive) | – | > 100 µM (inactive) | 53.8 µM (inactive) | > 100 µM (inactive) | – | – | > 100 µM (inactive) | > 100 µM (inactive) | 72.9 µM (inactive) | > 100 µM (inactive) | > 100 µM (inactive) | – | > 100 µM (inactive) | > 100 µM (inactive) | > 100 µM (inactive) | > 100 µM (inactive)
9 | NS(=O)(=O)c1nnc(NC(=O)N(c2ccccc2)c2ccccc2)s1 | 29.4 µM (inactive) | 24 µM (inactive) | 24.4 µM (inactive) | 19.9 µM (inactive) | 22.7 µM (inactive) | 31.3 µM (inactive) | 36.1 µM (inactive) | – | 17.7 µM (inactive) | 14.2 µM (inactive) | 25.4 µM (inactive) | 24.8 µM (inactive) | 38.1 µM (inactive) | 18.5 µM (inactive) | 21.6 µM (inactive) | 21.2 µM (inactive) | 34 µM (inactive) | 16.3 µM (inactive) | 20.1 µM (inactive) | –
10 | O=NN(CCCl)C(=O)N[C@H]1CC[C@@H](CC(=O)O)CC1 | > 100 µM (inactive) | > 100 µM (inactive) | 99.3 µM (inactive) | > 100 µM (inactive) | > 100 µM (inactive) | > 100 µM (inactive) | > 100 µM (inactive) | 55.2 µM (inactive) | > 100 µM (inactive) | – | – | > 100 µM (inactive) | > 100 µM (inactive) | > 81.1 µM (inactive) | > 100 µM (inactive) | > 100 µM (inactive) | 67.5 µM (inactive) | 38.3 µM (inactive) | 28.6 µM (inactive) | –
11 | O[C@@H]1C[C@H]2N3CC[C@@]2(c2cc4c(cc2C3)OCO4)[C@H]2O[C@@H]12 | > 100 µM (inactive) | > 100 µM (inactive) | > 100 µM (inactive) | > 100 µM (inactive) | < 0.01 µM (active) | > 100 µM (inactive) | 90.4 µM (inactive) | > 100 µM (inactive) | > 100 µM (inactive) | > 100 µM (inactive) | > 100 µM (inactive) | > 100 µM (inactive) | > 100 µM (inactive) | > 100 µM (inactive) | > 100 µM (inactive) | > 100 µM (inactive) | > 100 µM (inactive) | > 100 µM (inactive) | > 100 µM (inactive) | –
12 | CCN1C(C)=NC2C(=O)c3ccccc3C(=O)C21 (stereo not drawn) | 36.2 µM (inactive) | > 100 µM (inactive) | 81.7 µM (inactive) | 74.1 µM (inactive) | 24.1 µM (inactive) | > 100 µM (inactive) | 31.2 µM (inactive) | 30.1 µM (inactive) | 38.1 µM (inactive) | – | – | – | – | 37.8 µM (inactive) | – | 40 µM (inactive) | 82.2 µM (inactive) | 37.8 µM (inactive) | 47 µM (inactive) | 52.5 µM (inactive)
13 | CCC(=O)O[C@@H]1C2C(OC(C)=O)C34COC(C)([C@@H]3C3C(C[C@]3(C)OC(C)=O)[C@@H](OC(=O)c3ccccc3)C4=O)[C@H](OC(C)=O)[C@@]2(OC(C)=O)C[C@@H]1C (stereo partly drawn) | 30.7 µM (inactive) | 59.8 µM (inactive) | 14 µM (inactive) | 95.5 µM (inactive) | 13.5 µM (inactive) | 79.4 µM (inactive) | 87.9 µM (inactive) | > 100 µM (inactive) | 13.7 µM (inactive) | – | – | 94.4 µM (inactive) | – | 3.01 µM (inactive) | > 100 µM (inactive) | 36.6 µM (inactive) | 12.4 µM (inactive) | 15.6 µM (inactive) | 17.5 µM (inactive) | 54.1 µM (inactive)
14 | CC(C)C(C(=O)N(C)[C@H](C(=O)N1CCC[C@H]1C(=O)N(C)[C@@H](Cc1ccccc1)C(=O)OCc1ccccc1)C(C)C)N(C)C(=O)[C@@H](NC(=O)OC(C)(C)C)C(C)C (stereo partly drawn) (Boc-V[ξNMeV][NMeV]P[NMeF]-OBn) | 10.8 µM (inactive) | 30.4 µM (inactive) | > 31.6 µM (inactive) | > 31.6 µM (inactive) | 7.14 µM (inactive) | > 31.6 µM (inactive) | 9.33 µM (inactive) | 15.8 µM (inactive) | 22.5 µM (inactive) | – | – | > 31.6 µM (inactive) | – | 12 µM (inactive) | > 10 µM (inactive) | 34.8 µM (inactive) | 19.8 µM (inactive) | 4.58 µM (inactive) | 11.2 µM (inactive) | 7.36 µM (inactive)
15 | COC[C@@H]1Cc2cc(OC)c3c(c2[C@H](c2ccc(OC)c(OC)c2)[C@H]1COC)OCO3 [HYPOPHYLLANTHIN] | 99.8 µM (inactive) | 70.1 µM (inactive) | > 100 µM (inactive) | > 100 µM (inactive) | > 10 µM (inactive) | > 100 µM (inactive) | > 100 µM (inactive) | > 100 µM (inactive) | > 100 µM (inactive) | – | – | > 100 µM (inactive) | – | 28.1 µM (inactive) | > 100 µM (inactive) | 78.9 µM (inactive) | 57.5 µM (inactive) | > 100 µM (inactive) | > 100 µM (inactive) | > 100 µM (inactive)
